# Data from patent EP2540303A1, “Divalent cation containing compositions and methods for treating and/or preventing enzymatic irritation” (Johnson & Johnson Consumer Companies Inc., priority 2011, dated 2013).
# “And” between values parts separate entries of the source, which are not always exact repeats. Identical values can stand only once.
# Columns and labels:
# trypsin [1] = target: T1, trypsin (Bos taurus, UniProt P00760); conditions: at low concentrations, i.e., around 0.001 M; cited from earlier work
# T1 sequence (P00760 24-246): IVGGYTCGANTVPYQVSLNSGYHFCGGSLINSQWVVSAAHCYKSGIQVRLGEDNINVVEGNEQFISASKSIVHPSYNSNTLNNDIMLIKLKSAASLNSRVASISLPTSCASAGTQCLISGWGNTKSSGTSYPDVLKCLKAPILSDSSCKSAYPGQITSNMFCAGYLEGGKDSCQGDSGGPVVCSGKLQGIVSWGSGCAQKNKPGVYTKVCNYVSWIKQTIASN
# trypsin [2] = test: Inhibition of trypsin-induced cleavage of fluorescent casein (EnzChek protease assay kit), salts in PBS; assay type: biochemical; conditions: acetate monohydrate
# Procedure: The inhibition of trypsin-induced cleavage of a fluorescent casein peptide was measured using the EnzChek™ protease assay kit, following manufacturer's instructions (EnzChek™ Protease Assay Kits Product Information, Revised; Molecular Probes, Eugene OR). […] Trypsin working solution (Sigma, St. Louis, MO, unit/mL) was prepared in a portion of the digestion buffer provided in the assay kit (the digestion buffer provided in the assay kit comprises, in total, 260mL of 200nM Tris-HCl, pH7.8, containing 40mM sodium azide). Stock solution of BODIPY FL casein (the trypsin substrate, comprising a casein derivative labeled with a pH-insensitive green fluorescent protein, mg/mL) was prepared by adding 0.2 mL of phosphate buffered saline (PBS) to the substrate vials provided in kit, allowing sufficient time at room temperature for the substrate to dissolve fully (each substrate vial provided in the kit contains 200µg of BODIPY FL casein lyophilized from phosphate-buffered saline (PBS)). The final substrate working solution (10 microgram/mL) was prepared by dilution of 0.2 mL of the stock solution of BODIPY FL with 19.8 mL of digestion buffer (pH 7.8). To detect enzyme activity, 100µL of the BODIPY FL casein working solution was added to 50µL of trypsin working solution (containing 100U of trypsin) and 50µl of the solution of the required test material (if required) . […]
# trypsin [3] = test: Trypsin inhibition (EnzChek protease assay kit), divalent cation salts with and without talc; assay type: biochemical; conditions: for % synergistic activity relative to hypothetic additive value: (with talc value minus additive value) divided by additive value; for Salt alone trypsin inhibition activities (%): no talc
# Procedure: The objective of the following experiment was to determine whether and to what extent adding a divalent cation to talc inhibited trypsin activity in an in vitro assay. The inhibition of trypsin-induced cleavage of a fluorescent casein peptide was measured using the EnzChek™ protease assay kit, following manufacturer's instructions (EnzChek™ Protease Assay Kits Product Information, Revised; Molecular Probes, Eugene OR). […] Trypsin working solution (Sigma, St. Louis, MO, unit/mL) was prepared in a portion of the digestion buffer provided in the assay kit (the digestion buffer provided in the assay kit comprises, in total, 260mL of 200nM Tris-HCl, pH7.8, containing 40mM sodium azide). Stock solution of BODIPY FL casein (the trypsin substrate, comprising a casein derivative labeled with a pH-insensitive green fluorescent protein, mg/mL) was prepared by adding 0.2 mL of phosphate buffered saline (PBS) to the substrate vials provided in kit, allowing sufficient time at room temperature for the substrate to dissolve fully (each substrate vial provided in the kit contains 200µg of BODIPY FL casein lyophilized from phosphate-buffered saline (PBS)). The final substrate working solution (10 microgram/mL) was prepared by dilution of 0.2 mL of the stock solution of BODIPY FL with 19.8 mL of digestion buffer (pH 7.8). To detect enzyme activity, 100µL of the BODIPY FL casein working solution was added to 50µL of trypsin working solution (containing 100U of trypsin) and 50µl of the solution of the required test material (if required) . Following incubation of the trypsin, with or without the test materials, with the BODIPY fluorescent casein substrate, at room temperature for one hour, fluorescence was measured (excitation 485 nm /emission 530 nm) using a SpectraMax microtiter plate reader (Molecular Devices Corporation, Sunnyvale, CA) and Softmax Pro software (Molecular Devices Corporation). Each experiment was performed in three replicates. The percentage activity is quoted with comparison to results obtained from the assay performed without the addition of a test substrate.
# trypsin [4] = test: Trypsin inhibition (EnzChek protease assay kit), zinc oxide/acid mixtures and zinc oxide containing formulations; assay type: biochemical; conditions: Table 5
# Procedure: The objective of the following experiment was to determine whether and to what extent adding an acid to a formulation containing zinc oxide had on inhibition of trypsin activity in an in vitro assay. The inhibition of trypsin-induced cleavage of a fluorescent casein peptide was measured using the EnzChek^TM protease assay kit, following manufacturer's instructions (EnzChek^TM Protease Assay Kits Product Information, Revised; Molecular Probes, Eugene OR). Mixtures of zinc oxide and acid at different concentrations were prepared in lx PBS (pH 7.4) and their pH was recorded as listed in the Tables 5-8. Trypsin working solution (Sigma, St. Louis, MO, unit/mL) was prepared in a portion of the digestion buffer provided in the assay kit (the digestion buffer provided in the assay kit comprises, in total, 260mL of 200nM Tris-HCl, pH7.8, containing 40mM sodium azide). Stock solution of BODIPY FL casein (the trypsin substrate, comprising a casein derivative labeled with a pH-insensitive green fluorescent proten, mg/mL) was prepared by adding 0.2 mL of phosphate buffered saline (PBS) to the substrate vials provided in kit, allowing sufficient time at room temperature for the substrate to dissolve fully (each substrate vial provided in the kit contains 200µg of BODIPY FL casein lyophilized from phosphate-buffered saline (PBS)). The final substrate working solution (10 microgram/mL) was prepared by dilution of 0.2 mL of the stock solution of BODIPY FL with 19.8 mL of digestion buffer (pH 7.8). To detect enzyme activity, 100µL of the BODIPY FL casein working solution was added to 50µL of trypsin working solution (containing 100U of trypsin) and 50 µl of the solution of the required test material (if required). Following incubation of the trypsin, with or without the test materials (50 µl), with the BODIPY fluorescent casein substrate, at room temperature for one hour, fluorescence was measured (excitation 485 nm /emission 530 nm) using a SpectraMax microtiter plate reader (Molecular Devices Corporation, Sunnyvale, CA) and Softmax Pro software (Molecular Devices Corporation). Each experiment was performed in three replicates.
# For preparations, samples were diluted in lx PBS at 1:10 ratio and subjected to centrifugation at 13,200 rpm for 1 min using Eppendorf Centrifuge (Model 5415D, Eppendorf AG, Hamburg, Germany) to remove the solid formulation ingredients. The supernatants (50 µl) were used for trypsin inhibitory activity analyses as described above. For preparations, samples were diluted in 10, or 20 or 40 % ethanol and subjected to centrifugation at 13,200 rpm for 1 min using Eppendorf Centrifuge (Model 5415D, Eppendorf AG, Hamburg, Germany) to remove the solid formulation ingredients. The supernatants (50 µl) were used for trypsin inhibition assay. […] The percentage activity is quoted with comparison to results obtained from the assay performed without the addition of a test substrate.
# For the above study, the results are an average of three independent experiments, wherein the samples, which were diluted at 1:10 ratio in lx PBS solutions containing 10%, 20% or 40% ethanol, were tested in triplicates.
# [5] = Table 3, salt alone plus talc alone (8.55%), all at 0.1% (g/mL)
# [6] = Table 4, 0.1% MgCl2 and 1% talc
# [7] = Table 4, 0.5% MgCl2 and 1% talc
smiles,measurement,setting,value
[Hg+2] [Hg++],inhibition of the esterase activity of trypsin,trypsin [1],inhibited the esterase activity of trypsin
CC(=O)[O-].CC(=O)[O-].O.[Cu+2] [Copper (II) acetate monohydrate],% Trypsin inhibitory activity,trypsin [2],66.53% and 95.17%
[Ag+] [Ag+],inhibition of the esterase activity of trypsin,trypsin [1],inhibited the esterase activity of trypsin
[Cl-].[Cl-].[Mg+2] [Magnesium chloride],% synergistic activity relative to hypothetic additive value,"trypsin [3]; Table 3, all at 0.1% (g/mL)",50.75%
same,Salt alone trypsin inhibition activities (%),"trypsin [3]; Table 3, salt 0.1% (g/mL)",4.75%
same,Hypothetically calculated additive value of salt and Talc trypsin inhibition activities (%),trypsin [3]; [5],13.30%
same,With 1% Talc trypsin inhibition activities (%),"trypsin [3]; Table 4, 0.1% MgCl2 (g/mL) with 1% talc",25.43%
same,Salt alone trypsin inhibition activities (%),"trypsin [3]; Table 4, 0.1% MgCl2 (g/mL)",9.02%
same,% synergistic activity relative to hypothetical additive value,trypsin [3]; [6],104.42%
same,Hypothetically calculated additive value of salt and Talc trypsin inhibition activities (%),trypsin [3]; [6],12.44%
same,With 1% Talc trypsin inhibition activities (%),"trypsin [3]; Table 4, 0.5% MgCl2 (g/mL) with 1% talc",32.84%
same,Salt alone trypsin inhibition activities (%),"trypsin [3]; Table 4, 0.5% MgCl2 (g/mL)",19.51%
same,% synergistic activity relative to hypothetical additive value,trypsin [3]; [7],43.22%
same,Hypothetically calculated additive value of salt and Talc trypsin inhibition activities (%),trypsin [3]; [7],22.93%
same,With 1% Talc trypsin inhibition activities (%),"trypsin [3]; Table 4, 1% MgCl2 (g/mL) with 1% talc",40.42%
same,Salt alone trypsin inhibition activities (%),"trypsin [3]; Table 4, 1% MgCl2 (g/mL)",22.13%
same,% synergistic activity relative to hypothetical additive value,"trypsin [3]; Table 4, 1% MgCl2 and 1% talc",58.20%
same,Hypothetically calculated additive value of salt and Talc trypsin inhibition activities (%),"trypsin [3]; Table 4, 1% MgCl2 and 1% talc",25.55%
same,trypsin inhibition (in words),trypsin [3]; combination of talc and magnesium chloride,synergistic increase in trypsin inhibition
same,trypsin inhibitory activity (in words),trypsin [3]; talc or magnesium chloride alone,moderate to low levels of trypsin inhibitory activity
O.O.O.O.[Cl][Fe][Cl] [Iron (II) chloride tetrahydrate],% synergistic activity relative to hypothetic additive value,"trypsin [3]; Table 3, all at 0.1% (g/mL)",-12.35%
same,Salt alone trypsin inhibition activities (%),"trypsin [3]; Table 3, salt 0.1% (g/mL)",65.07%
same,Hypothetically calculated additive value of salt and Talc trypsin inhibition activities (%),trypsin [3]; [5],73.62%
[Ca+2].[Cl-].[Cl-] [Calcium chloride],% synergistic activity relative to hypothetic additive value,"trypsin [3]; Table 3, all at 0.1% (g/mL)",-0.26%
same,Salt alone trypsin inhibition activities (%),"trypsin [3]; Table 3, salt 0.1% (g/mL)",17.95%
same,Hypothetically calculated additive value of salt and Talc trypsin inhibition activities (%),trypsin [3]; [5],26.50%
[Zn+2] [Zn++],inhibition of the esterase activity of trypsin,trypsin [1],to a lesser extent
CC(=O)[O-].CC(=O)[O-].[Zn+2] [Zinc acetate dihydrate],% synergistic activity relative to hypothetic additive value,"trypsin [3]; Table 3, all at 0.1% (g/mL)",-15.70%
same,Salt alone trypsin inhibition activities (%),"trypsin [3]; Table 3, salt 0.1% (g/mL)",62.84%
same,Hypothetically calculated additive value of salt and Talc trypsin inhibition activities (%),trypsin [3]; [5],71.39%
[Cu+2] [Cu++],inhibition of the esterase activity of trypsin,trypsin [1],inhibited the esterase activity of trypsin
[Cl-].[Cl-].[Zn+2] [Zinc chloride],% synergistic activity relative to hypothetic additive value,"trypsin [3]; Table 3, all at 0.1% (g/mL)",-13.01%
same,Salt alone trypsin inhibition activities (%),"trypsin [3]; Table 3, salt 0.1% (g/mL)",81.07%
same,Hypothetically calculated additive value of salt and Talc trypsin inhibition activities (%),trypsin [3]; [5],89.62%
CC(=O)[O-].CC(=O)[O-].O.[Ca+2] [Calcium acetate monohydrate],% synergistic activity relative to hypothetic additive value,"trypsin [3]; Table 3, all at 0.1% (g/mL)",3.10%
same,Salt alone trypsin inhibition activities (%),"trypsin [3]; Table 3, salt 0.1% (g/mL)",15.31%
same,Hypothetically calculated additive value of salt and Talc trypsin inhibition activities (%),trypsin [3]; [5],23.86%
CC(=O)[O-].CC(=O)[O-].O.O.O.O.[Mg+2] [Magnesium acetate tetrahydrate],% synergistic activity relative to hypothetic additive value,"trypsin [3]; Table 3, all at 0.1% (g/mL)",90.09%
same,Salt alone trypsin inhibition activities (%),"trypsin [3]; Table 3, salt 0.1% (g/mL)",0.83%
same,Hypothetically calculated additive value of salt and Talc trypsin inhibition activities (%),trypsin [3]; [5],9.38%
CC(=O)O [acetic acid],% Trypsin inhibitory activity,"trypsin [4]; No ZnO, 0.01 % acetic acid, pH 6.84",-11.18+/-2.61%
same,% Trypsin inhibitory activity,"trypsin [4]; No ZnO, 0.05% acetic acid, pH 4.75",25.81+/-2.13%
"[O]=[Zn] [ZnO, zinc oxide]",% Trypsin inhibitory activity,"trypsin [4]; 0.1% ZnO, 0.01 % acetic acid, pH 7.28",1.85+/-1.34%
same,% Trypsin inhibitory activity,"trypsin [4]; 0.1% ZnO, 0.05% acetic acid, pH 6.03",49.16+/-1.43%
same,% Trypsin inhibitory activity,"trypsin [4]; 0.1% ZnO, No acetic acid, pH 7.61",-2.6+/-2.76%
same,% Trypsin inhibitory activity,"trypsin [4]; 1% ZnO, 0.01 % acetic acid, pH 7.85",15.82+/-1.68%
same,% Trypsin inhibitory activity,"trypsin [4]; 1% ZnO, 0.05% acetic acid, pH 6.08",58.19+/-0.73%
same,% Trypsin inhibitory activity,"trypsin [4]; 1% ZnO, No acetic acid, pH 8.07",5.40 +/- 1.24%
same,trypsin inhibitory activity (in words),trypsin [4]; mixtures of zinc oxide and acetic acid,"have trypsin inhibitory activity, which is dose-dependent"
same,protease activity (in words),trypsin [4]; zinc oxide without acid,minimal protease activity
